The values below come from ChEMBL document CHEMBL1201862, “PubChem BioAssay data set” (2004).

The source made the active and inactive calls.

The nature of assay [1]: HeLa cell cytotoxicity, dose response, cytotoxicity control, 24 h, plate reader, dry powder (AID 686928). It is filed as functional, cell-based.
Assay [2] deals with Paired box protein Pax-8 (Homo sapiens, UniProt Q06710). Description: inhibitors of PAX8-driven TPO luciferase reporter, dose response, RMG-I cells, cherry-pick (AID 687027).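 Also: luciferase reporter driven by Pax8 target thyroperoxidase promoter measured by SteadyGlo luminescence.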 Type of assay: functional, cell-based.
Chain of Paired box protein Pax-8 (Q06710 whole entry): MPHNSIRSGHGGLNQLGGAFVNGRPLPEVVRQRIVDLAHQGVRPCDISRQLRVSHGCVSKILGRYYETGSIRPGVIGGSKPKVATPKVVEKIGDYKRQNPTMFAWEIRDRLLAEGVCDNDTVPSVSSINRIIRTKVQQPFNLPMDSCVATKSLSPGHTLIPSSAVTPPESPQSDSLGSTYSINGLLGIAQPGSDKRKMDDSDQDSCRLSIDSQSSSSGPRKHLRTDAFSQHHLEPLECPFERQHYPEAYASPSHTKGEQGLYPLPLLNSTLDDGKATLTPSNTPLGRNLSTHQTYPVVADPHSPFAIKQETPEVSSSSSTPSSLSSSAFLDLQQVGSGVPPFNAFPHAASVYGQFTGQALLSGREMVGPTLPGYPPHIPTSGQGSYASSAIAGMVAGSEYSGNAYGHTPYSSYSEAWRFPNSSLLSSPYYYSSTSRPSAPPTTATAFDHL
A short description of assay [3]: IOSE-T80 ovarian epithelial cell cytotoxicity, dose response, cytotoxicity control for PAX8 inhibitor project, plate reader, dry powder samples (AID 743045). It is filed as functional, cell-based.
Assay [4] can be described thus: A2780 ovarian cancer cell cytotoxicity, dose response, cytotoxicity control, plate reader, dry powder samples (AID 743046). It is filed as functional, cell-based.
A short description of assay [5]: NIH:OVCAR-3 ovarian cancer cell cytotoxicity, dose response, PAX8 inhibitor project, plate reader, dry powder samples (AID 743044). It is filed as functional, cell-based.
Assay [6] can be described thus: IGROV1 ovarian cancer cell cytotoxicity, dose response, PAX8 inhibitor project, plate reader, dry powder samples (AID 743043). Type of assay: functional, cell-based. Particulars: IGROV-1.
The nature of assay [7]: cytotoxicity in OVCAR8 ovarian cancer cells, dose response, PAX8 project, cell-based, plate reader, dry powder samples (AID 743197). Type of assay: functional. The conditions noted are these: OVCAR-8.
The target in assay [8] is Potassium channel subfamily K member 9 (Homo sapiens, UniProt Q9NPC2). Briefly: TASK3 (KCNK9) channel inhibitors, thallium flux, SAR follow-up, selectivity assay for TASK1 inhibitor project, cell-based, FluxOR thallium flux, concentration-response (AID 652211).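 Also: potency is for inhibitors of the channel.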 It is filed as functional.
Chain of Potassium channel subfamily K member 9 (Q9NPC2 whole entry): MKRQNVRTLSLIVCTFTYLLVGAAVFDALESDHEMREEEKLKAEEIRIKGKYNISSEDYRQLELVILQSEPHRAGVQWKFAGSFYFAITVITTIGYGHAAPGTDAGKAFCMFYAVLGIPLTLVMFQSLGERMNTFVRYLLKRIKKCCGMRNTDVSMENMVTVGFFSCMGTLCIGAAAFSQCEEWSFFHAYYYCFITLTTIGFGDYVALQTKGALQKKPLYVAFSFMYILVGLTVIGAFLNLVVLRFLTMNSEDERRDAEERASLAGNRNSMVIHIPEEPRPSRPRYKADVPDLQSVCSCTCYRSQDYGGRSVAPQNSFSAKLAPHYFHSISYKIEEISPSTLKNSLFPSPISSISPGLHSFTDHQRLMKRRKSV
Assay [9] deals with Potassium channel subfamily K member 3 (Homo sapiens, UniProt O14649). Briefly: TASK1 (KCNK3) potassium channel inhibitors, SAR follow-up, CHO cells, FluxOR thallium flux (AID 652212). It is filed as functional.
Chain of Potassium channel subfamily K member 3 (O14649 whole entry): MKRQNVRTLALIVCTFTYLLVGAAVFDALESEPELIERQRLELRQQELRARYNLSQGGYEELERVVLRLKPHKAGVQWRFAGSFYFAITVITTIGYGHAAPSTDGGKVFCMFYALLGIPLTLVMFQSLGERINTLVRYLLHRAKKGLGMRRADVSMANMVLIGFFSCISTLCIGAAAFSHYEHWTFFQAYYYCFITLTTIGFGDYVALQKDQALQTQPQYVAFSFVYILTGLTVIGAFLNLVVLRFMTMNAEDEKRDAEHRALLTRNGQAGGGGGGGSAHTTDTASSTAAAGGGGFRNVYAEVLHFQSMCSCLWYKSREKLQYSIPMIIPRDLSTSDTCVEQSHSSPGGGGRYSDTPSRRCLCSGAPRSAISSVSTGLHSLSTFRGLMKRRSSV
Assay [10] can be described thus: HepG2 cell cytotoxicity, dose response, cytotoxicity control, ATP luminescence, cherry-pick, set 6 (AID 1053125). It is filed as functional, cell-based.
A short description of assay [11]: cells. Particulars: A549.
Assay [12] is described as follows: cells.
Assay [13] is described as follows: cells. The conditions noted are these: HEK293.
Assay [14] has as its target 1-phosphatidylinositol 4,5-bisphosphate phosphodiesterase gamma-1 (Homo sapiens, UniProt P19174). Description: Counterscreen for inhibitors of phospholipase C isozymes (PLC-B3): Fluorescence-based biochemical high throughput dose response assay to identify inhibitors of phospholipase C isozymes (PLC-gamma1). On the technique in general: Counterscreens check selectivity or assay interference.

The target of assay [15] is 1-phosphatidylinositol 4,5-bisphosphate phosphodiesterase beta-3 (Homo sapiens, UniProt Q01970). Description: Fluorescence-based biochemical high throughput dose response assay to identify inhibitors of phospholipase C isozymes (PLC-B3).
Chain of 1-phosphatidylinositol 4,5-bisphosphate phosphodiesterase beta-3 (Q01970 whole entry): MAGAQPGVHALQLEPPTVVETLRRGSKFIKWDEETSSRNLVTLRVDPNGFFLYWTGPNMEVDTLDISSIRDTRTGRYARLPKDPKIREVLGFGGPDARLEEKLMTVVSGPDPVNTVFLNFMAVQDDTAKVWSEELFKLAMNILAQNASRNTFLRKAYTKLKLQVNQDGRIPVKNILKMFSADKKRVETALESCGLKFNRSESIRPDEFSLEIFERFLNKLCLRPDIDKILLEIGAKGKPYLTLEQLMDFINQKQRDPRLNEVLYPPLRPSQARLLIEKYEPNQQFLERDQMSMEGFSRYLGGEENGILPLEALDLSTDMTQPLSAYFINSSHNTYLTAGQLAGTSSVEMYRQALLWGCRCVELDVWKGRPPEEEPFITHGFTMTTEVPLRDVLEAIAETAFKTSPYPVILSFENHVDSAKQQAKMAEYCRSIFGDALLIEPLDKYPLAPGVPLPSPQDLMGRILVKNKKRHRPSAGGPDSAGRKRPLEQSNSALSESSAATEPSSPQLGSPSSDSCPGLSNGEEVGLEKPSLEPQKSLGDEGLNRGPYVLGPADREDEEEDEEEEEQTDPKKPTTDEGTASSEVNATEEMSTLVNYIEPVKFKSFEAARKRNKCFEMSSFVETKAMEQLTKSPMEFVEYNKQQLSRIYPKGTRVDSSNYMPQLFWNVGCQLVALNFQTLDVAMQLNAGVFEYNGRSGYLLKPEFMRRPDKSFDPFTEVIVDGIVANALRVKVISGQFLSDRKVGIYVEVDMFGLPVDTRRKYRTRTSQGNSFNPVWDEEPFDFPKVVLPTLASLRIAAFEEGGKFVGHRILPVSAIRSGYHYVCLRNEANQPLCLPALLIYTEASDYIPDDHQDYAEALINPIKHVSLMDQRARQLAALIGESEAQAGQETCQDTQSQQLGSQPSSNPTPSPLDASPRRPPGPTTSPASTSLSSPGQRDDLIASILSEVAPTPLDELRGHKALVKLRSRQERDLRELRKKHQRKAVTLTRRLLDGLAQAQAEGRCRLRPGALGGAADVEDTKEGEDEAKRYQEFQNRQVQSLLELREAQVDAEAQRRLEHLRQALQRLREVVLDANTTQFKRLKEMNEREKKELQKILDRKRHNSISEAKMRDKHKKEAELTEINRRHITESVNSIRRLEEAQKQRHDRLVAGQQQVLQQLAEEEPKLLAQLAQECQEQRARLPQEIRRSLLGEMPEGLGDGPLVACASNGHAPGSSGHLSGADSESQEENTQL
The nature of assay [16]: ADAM10 inhibitors, peptide cleavage, dose response, biochemical, QFRET (AID 743254).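 Also: ADAM10 enzyme with the DM2 quenched FRET peptide as substrate; EDANS fluorescence gain as the protease cuts the substrate; inhibitor potency against ADAM10 proteolytic activity.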
The target in assay [17] is T1, Disintegrin and metalloproteinase domain-containing protein 17 (Homo sapiens, UniProt P78536). Briefly: ADAM17 protease inhibitors, dose response, counter-screen for ADAM10 exosite inhibitor project, biochemical, quenched FRET substrate (AID 743253).
T1 sequence (P78536 whole entry, the tested form may be a part): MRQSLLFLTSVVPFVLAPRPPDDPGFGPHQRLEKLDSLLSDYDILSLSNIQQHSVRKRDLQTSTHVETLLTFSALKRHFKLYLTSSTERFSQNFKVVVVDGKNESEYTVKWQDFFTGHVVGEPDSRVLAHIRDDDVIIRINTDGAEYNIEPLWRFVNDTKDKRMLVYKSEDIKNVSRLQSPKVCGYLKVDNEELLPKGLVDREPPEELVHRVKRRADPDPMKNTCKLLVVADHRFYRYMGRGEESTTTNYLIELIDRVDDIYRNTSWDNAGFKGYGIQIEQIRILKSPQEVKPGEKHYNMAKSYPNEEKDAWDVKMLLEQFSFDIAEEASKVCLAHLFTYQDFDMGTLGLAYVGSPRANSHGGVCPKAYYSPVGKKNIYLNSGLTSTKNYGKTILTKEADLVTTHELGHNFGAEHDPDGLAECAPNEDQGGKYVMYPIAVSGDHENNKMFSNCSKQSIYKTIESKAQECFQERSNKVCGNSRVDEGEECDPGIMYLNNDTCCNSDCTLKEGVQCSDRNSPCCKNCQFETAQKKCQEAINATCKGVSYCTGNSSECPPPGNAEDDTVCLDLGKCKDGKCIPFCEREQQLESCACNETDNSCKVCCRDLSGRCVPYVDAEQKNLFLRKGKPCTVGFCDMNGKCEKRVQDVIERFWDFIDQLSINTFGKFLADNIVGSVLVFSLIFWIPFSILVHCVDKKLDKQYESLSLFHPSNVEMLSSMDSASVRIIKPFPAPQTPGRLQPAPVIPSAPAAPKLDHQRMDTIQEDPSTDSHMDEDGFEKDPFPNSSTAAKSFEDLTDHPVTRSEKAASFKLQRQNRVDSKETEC
Assay [18] can be described thus: MITF Orthogonal Assay: SK-MEL-5 CTG Assay Measured in Cell-Based System Using Plate Reader - 2084-02_Inhibitor_Dose_DryPowder_Activity_Set7. Type of assay: functional.
Assay [19] can be described thus: MITF: Counter assay: A375 proliferation Measured in Cell-Based System Using Plate Reader - 2084-03_Inhibitor_Dose_DryPowder_Activity_Set8. It is filed as functional. The conditions noted are these: A-375.
Assay [20] can be described thus: TRPM1 promoter luciferase reporter signal decrease, dose response, MITF inhibitor project, cell-based, SK-MEL-5, dry powder, set 8 (AID 624430). Type of assay: functional.
The nature of assay [21]: HepG2 cell cytotoxicity, dose response, cytotoxicity control, cherry-picks, set 5 (AID 1053118). It is filed as functional, cell-based.
A short description of assay [22]: HEK293 cell cytotoxicity, dose response, cytotoxicity control, cherry-picks, set 5 (AID 1053117). It is filed as functional, cell-based.
The nature of assay [23]: BHK-21 cell cytotoxicity, cytotoxicity control for flavivirus guanylyltransferase probe project, secondary screen (AID 624078). Type of assay: functional.
A short description of assay [24]: human group III sPLA2 inhibitors, dose response, biochemical, QFRET, IC50 (AID 743457).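 Also: green fluorescence rise as the enzyme cleaves BODIPY PC-A2 in liposomes; potency for inhibition of the enzyme.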
Assay [25] is described as follows: LGR2 antagonists, dose response, cell-based, HEK293, CRE-luciferase reporter, cherry pick (AID 743342). It is filed as functional. In general terms: In a reporter assay the amount or activity of a reporter protein is the signal.
A short description of assay [26]: A549 cell cytotoxicity, dose response, cytotoxicity control, cherry-picks, 26 µM top dose (AID 1053119). It is filed as functional, cell-based.
For assay [27], the target named is T2, Caspase-6 (Homo sapiens, UniProt P55212).
T2 sequence (P55212 whole entry): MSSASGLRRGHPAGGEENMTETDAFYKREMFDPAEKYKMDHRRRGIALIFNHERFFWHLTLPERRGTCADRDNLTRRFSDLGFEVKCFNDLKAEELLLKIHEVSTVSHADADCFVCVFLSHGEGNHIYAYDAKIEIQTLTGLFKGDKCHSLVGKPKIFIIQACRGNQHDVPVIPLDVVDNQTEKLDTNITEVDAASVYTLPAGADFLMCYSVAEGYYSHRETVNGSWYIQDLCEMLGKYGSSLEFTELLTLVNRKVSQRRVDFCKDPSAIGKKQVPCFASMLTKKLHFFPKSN
Briefly: human caspase-6 inhibitors, dose response, biochemical, VEID-R110 fluorescence, dry powder retest (AID 743332).

Assay [28] has as its target Kallikrein-7 (Homo sapiens, UniProt P49862). Description: Fluorescence Intensity-based biochemical primary high throughput dose response assay to identify activators of kallikrein-7 (K7) zymogen.
For assay [29], the system named is H9c2. Description: cells. Particulars: Rattus norvegicus, H9c2, Myocardium. Type of assay: functional, cell-based.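 Also: confirmatory concentration-response retest of ultra-high-throughput screening hits for modulation of myocardial damage; cell death induced by hydrogen peroxide oxidative stress; compound pretreatment for 60 min then peroxide exposure for 2 h; potency is for protecting the cells against peroxide damage rather than for killing them.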
The target of assay [30] is Endoplasmic reticulum aminopeptidase 1 (Homo sapiens, UniProt Q9NZ08). Description: ERAP1 aminopeptidase inhibitors, dose response, biochemical, cherry-pick, set 2, plate reader (AID 743314).
Assay [31] addresses T1, Disintegrin and metalloproteinase domain-containing protein 17. Briefly: exosite inhibitors of ADAM17, dose response, biochemical (AID 743260).
The nature of assay [32]: ADAM10 protease inhibitors, dose response, selectivity assay for ADAM17 exosite inhibitor project, biochemical, FRET peptide substrate, recombinant human ADAM10 (AID 743259).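 Also: ADAM10 enzyme cleaving a FRET peptide substrate.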
Assay [33] in a line: HEK293T cytotoxicity, dose response, cytotoxicity control for miR-122 modulator project, cell-based, inhibitor set, cherry-pick, set 2 (AID 720697). It is filed as functional.
The nature of assay [34]: A375 melanoma cell viability loss, dose response, counter-screen for MITF inhibitor project, CellTiter-Glo luminescence, dry powder, set 4 (AID 624364).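 Also: A375 melanoma cells are MITF independent so this is a counter screen.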 Type of assay: functional, cell-based. Particulars: A-375.
Assay [35] can be described thus: A375 melanoma cell cytotoxicity, dose response, counter-screen for MITF inhibitor project, CellTiter-Glo luminescence, dry powder, set 2 (AID 624489).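 Also: actives are compounds lowering A375 viability meaning general cytotoxicity.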 Type of assay: functional, cell-based. The conditions noted are these: A-375.
Assay [36] addresses T3, Protein skinhead-1 (Caenorhabditis elegans, UniProt P34707).
T3 sequence (P34707 whole entry): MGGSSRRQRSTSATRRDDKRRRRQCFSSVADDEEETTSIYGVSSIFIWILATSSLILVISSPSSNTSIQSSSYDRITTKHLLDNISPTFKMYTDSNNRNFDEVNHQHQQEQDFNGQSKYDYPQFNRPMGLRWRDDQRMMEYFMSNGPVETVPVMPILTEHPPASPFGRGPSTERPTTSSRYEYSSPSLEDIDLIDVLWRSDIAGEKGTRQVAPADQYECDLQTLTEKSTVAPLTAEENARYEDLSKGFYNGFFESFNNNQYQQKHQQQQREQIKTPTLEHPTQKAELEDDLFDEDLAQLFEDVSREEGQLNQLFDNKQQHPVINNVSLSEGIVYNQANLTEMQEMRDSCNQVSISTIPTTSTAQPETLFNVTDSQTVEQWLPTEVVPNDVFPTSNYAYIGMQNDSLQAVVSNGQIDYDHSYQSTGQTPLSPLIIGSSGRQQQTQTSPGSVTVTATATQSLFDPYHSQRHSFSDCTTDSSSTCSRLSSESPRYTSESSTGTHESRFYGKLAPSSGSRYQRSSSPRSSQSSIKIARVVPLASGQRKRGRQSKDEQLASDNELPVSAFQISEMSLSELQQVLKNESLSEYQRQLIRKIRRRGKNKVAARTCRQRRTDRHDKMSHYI
Type of assay: functional.

Assay [37] has as its target T4, Oxysterols receptor LXR-beta (Homo sapiens, UniProt P55055).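 Also: agonist activity at LXR measured by a cell-based luminescence readout across a dose range, run as a counterscreen for daf-12 agonists; HEK293 cells with Gal4-LXR fusion and GAL4-driven luciferase reporter; potency for activation of Gal4-LXR reporter so compounds are agonists.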
T4 sequence (P55055 whole entry): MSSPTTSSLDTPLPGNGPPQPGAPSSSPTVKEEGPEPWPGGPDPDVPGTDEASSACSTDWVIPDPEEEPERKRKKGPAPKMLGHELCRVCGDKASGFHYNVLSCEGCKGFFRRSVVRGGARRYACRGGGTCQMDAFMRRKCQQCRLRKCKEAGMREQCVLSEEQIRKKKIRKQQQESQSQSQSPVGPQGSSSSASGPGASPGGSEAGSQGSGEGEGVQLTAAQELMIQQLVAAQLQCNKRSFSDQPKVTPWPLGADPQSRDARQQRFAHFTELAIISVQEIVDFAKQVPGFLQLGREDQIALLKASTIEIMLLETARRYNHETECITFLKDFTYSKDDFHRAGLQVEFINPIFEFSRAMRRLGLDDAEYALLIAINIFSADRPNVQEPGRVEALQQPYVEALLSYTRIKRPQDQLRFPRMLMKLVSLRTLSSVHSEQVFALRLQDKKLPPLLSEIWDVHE
Type of assay: functional, cell-based.

Chain of 1-phosphatidylinositol 4,5-bisphosphate phosphodiesterase gamma-1 (P19174 whole entry): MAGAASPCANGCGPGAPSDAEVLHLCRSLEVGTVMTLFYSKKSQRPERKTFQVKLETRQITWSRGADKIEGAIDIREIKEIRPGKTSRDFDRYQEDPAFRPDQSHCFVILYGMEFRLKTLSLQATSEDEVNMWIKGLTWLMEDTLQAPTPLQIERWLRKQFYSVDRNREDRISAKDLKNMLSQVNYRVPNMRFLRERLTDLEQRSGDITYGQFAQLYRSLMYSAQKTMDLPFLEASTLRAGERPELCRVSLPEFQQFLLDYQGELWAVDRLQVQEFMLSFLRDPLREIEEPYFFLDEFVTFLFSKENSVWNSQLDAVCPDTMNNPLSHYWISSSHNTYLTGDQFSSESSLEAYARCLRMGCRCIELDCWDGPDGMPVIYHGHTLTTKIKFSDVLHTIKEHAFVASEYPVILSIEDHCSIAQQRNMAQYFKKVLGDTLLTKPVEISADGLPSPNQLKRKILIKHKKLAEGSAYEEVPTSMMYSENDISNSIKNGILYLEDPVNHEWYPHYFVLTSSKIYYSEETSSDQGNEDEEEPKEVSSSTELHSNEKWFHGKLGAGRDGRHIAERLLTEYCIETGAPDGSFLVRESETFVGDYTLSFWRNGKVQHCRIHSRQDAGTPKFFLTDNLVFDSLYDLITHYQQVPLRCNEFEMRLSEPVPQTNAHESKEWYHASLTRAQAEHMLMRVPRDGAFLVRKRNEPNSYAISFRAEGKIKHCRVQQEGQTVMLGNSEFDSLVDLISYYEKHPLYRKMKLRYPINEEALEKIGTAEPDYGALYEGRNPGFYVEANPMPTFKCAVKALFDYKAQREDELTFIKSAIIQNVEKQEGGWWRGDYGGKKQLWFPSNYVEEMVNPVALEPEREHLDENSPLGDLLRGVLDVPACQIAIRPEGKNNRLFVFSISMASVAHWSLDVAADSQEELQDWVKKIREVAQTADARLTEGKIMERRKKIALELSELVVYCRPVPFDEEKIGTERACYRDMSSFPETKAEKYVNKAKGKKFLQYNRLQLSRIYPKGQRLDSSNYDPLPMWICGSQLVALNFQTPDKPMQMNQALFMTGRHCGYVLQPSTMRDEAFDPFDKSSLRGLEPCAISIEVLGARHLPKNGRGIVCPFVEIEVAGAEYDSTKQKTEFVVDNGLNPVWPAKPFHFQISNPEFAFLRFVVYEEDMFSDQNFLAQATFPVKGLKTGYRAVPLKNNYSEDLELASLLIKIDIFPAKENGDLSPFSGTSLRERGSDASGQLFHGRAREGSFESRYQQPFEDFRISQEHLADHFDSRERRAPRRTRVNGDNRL
Chain of Kallikrein-7 (P49862 whole entry): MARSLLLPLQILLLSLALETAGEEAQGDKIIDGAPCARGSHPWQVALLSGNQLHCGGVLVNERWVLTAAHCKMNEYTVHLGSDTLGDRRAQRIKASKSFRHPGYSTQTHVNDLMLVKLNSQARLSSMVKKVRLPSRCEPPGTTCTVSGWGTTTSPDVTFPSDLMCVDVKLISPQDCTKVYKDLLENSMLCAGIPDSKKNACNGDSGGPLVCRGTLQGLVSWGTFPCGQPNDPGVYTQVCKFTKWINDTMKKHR

What is called AC50 is the concentration giving half of the maximal activity seen. On to `CC(C)(C)COC(=O)CSc1n[nH]c(=O)[nH]c1=O`, for which the AC50 in [1] was > 76 µM (inactive).

Take `CS(=O)(=O)Nc1ccc2c(c1)[C@@H]1C[C@@H](CC(=O)NCc3ccc(Oc4ccccc4)cc3)O[C@@H](CO)[C@@H]1O2`: the AC50 was 1.95 µM (active) in assay [2]; 8.81 µM (active) in assay [3]; 6.31 µM (active) in assay [4]; 3.38 µM (active) in assay [5]; 6.7 µM (active) in assay [6]; 11.3 µM (active) in assay [7].

Usually IC50 stands for the concentration at which inhibition is half-maximal. In the case of `CCOc1ccccc1NC(=O)c1cccc(NC(=O)c2ccc(C)cc2)c1`, the results for the IC50 in [8] and in assay [9] were 14.7 µM (active) and 0.134 µM (active), respectively.

As for `CCOc1ccc2nc(NCCN=C(S)NCCCN(C)C)c(C#N)cc2c1`, the AC50 in [10] was > 52 µM (inactive); in [11] it was > 52 µM (inactive); in assay [12] it was > 32 µM (inactive); in assay [13] it was > 52 µM (inactive).

`Cc1cc(OCC(=O)OCC(=O)NCc2ccc3c(c2)OCO3)ccc1Cl`: the IC50 in assay [14] and in [15] was > 123 µM (inactive) in each case.

`CC(O)(c1ccc(F)c(F)c1)c1nc(-c2cc3ccccc3o2)cs1` (configuration not stated): the IC50 in assay [16] was 10.5 µM (inactive); in assay [17], > 69.5 µM (inactive).

Consider `CN1CCN(C2=C(Nc3cccc(Br)c3)C(=O)c3ccccc3C2=O)CC1`, for which the concentration at half-maximal activity (AC50) in assay [18] was 12.3 µM (active); in assay [19], 39.3 µM (active); in [20] it was 4.79 µM (active).

For `C[C@@H]1CN([C@@H](C)CO)C(=O)c2cc(-c3ccccc3)cnc2O[C@H]1CN(C)Cc1ccccc1`, the AC50 in assay [21] and in assay [22] was > 52 µM (inactive) throughout.

The CC50 is the concentration at which the toxic effect on the cells reaches its halfway point. As to `O=S(=O)(Nc1cc(Sc2ccccc2)c(O)c2ccccc12)c1ccc(F)cc1`, the CC50 in assay [23] was 13.4 µM (active).

Consider `Cc1cccc(NC(=O)NNC(=O)c2ccc3ccccc3c2O)c1`, for which, in [24], the IC50 was > 122 µM (inactive).

In the case of `C[C@H](CO)N1C[C@H](C)[C@H](CN(C)C(=O)Nc2ccc3c(c2)OCO3)OCCCC[C@H](C)Oc2ccc(NC(=O)NC3CCCCC3)cc2C1=O`, in assay [25], the AC50 was 9.97 µM (active).

As to `CN(C)C(=O)c1ccc(-c2ccc3c(c2)[C@H]2[C@H](CCN2C(=O)c2ccc(F)cc2)[C@H](CO)N3C)cc1`, in assay [26], the AC50 is 43.6 µM (active).

With `O=C(c1ccc(-n2cccc2)cc1)N1CCN(S(=O)(=O)c2ccccc2)CC1`, the AC50 in assay [27] was 23.9 µM (active).

A word on the EC50: it is the concentration needed to bring the measured effect to its halfway point. With `COc1ccc(/C=N/NC(=O)c2cc3c(ccc4ccccc43)o2)cc1OC`, the EC50 in assay [28] was > 23.2 µM (inactive).

With `CCCCc1cc(=O)oc2cc(O)ccc12`, the IC50 in assay [29] was > 79 µM (inactive). In assay [30], the AC50 is 7.25 µM (active).

`NS(=O)(=O)c1ccc(NCc2cc(Cl)ccc2OCc2ccc(F)cc2)cc1`: the IC50 in [31] was > 69.5 µM (inactive); in [32] it was > 23.2 µM (inactive).

`Cn1c(-c2ccc(N)cc2)nc2ccccc21`: the concentration at half-maximal activity (AC50) in assay [33] is 9.34 µM (active).

With `O=C1C(NS(=O)(=O)c2ccc(Br)cc2)=C(N2CCOCC2)C(=O)c2ccccc21`, the AC50 in [34] and in assay [35] was > 70 µM (inactive) in each case.

With `Cc1cc2nn(-c3ccc(F)cc3)nc2cc1N`, the IC50 in [36] was > 100 µM (inactive). Besides, the EC50 in assay [37] was > 67.5 µM (inactive).
